Experimental data taken from US8597875B2, “Method for diagnosing liver toxicity with sex specific biomarkers” (BASF SE, priority 2008, dated 2013).

Tests used:
female rats = assay: Plasma metabolite profiling (GC-MS/LC-MS) for liver toxicity markers, 28-day gavage study, female rats; type: in vivo, rat; conditions: female rats
Protocol: (§1) A group of each 5 male and female rats was dosed once daily with the indicated compounds (see tables below) at 10 and 100 mg/kg body weight per gavage over 28 days. Additional groups of each 5 male and female animals served as controls. Before starting the treatment period, animals, which were 62-64 days old when supplied, were acclimatized to the housing and environmental conditions for 7 days. All animals of the animal population were kept under the same constant temperature (20-24±3° C.) and the same constant humidity (30-70%). Each animal of the animal population was kept in a separate cage. The animals of the animal population are fed ad libitum. The food to be used was be essentially free of chemical or microbial contaminants. Drinking water was also offered ad libitum. Accordingly, the water was be free of chemical and microbial contaminants as laid down in the European Drinking Water Directive 98/83/EG. The illumination period was 12 hours light followed by 12 hours darkness (12 hours light, from 6:00 to 18:00, and 12 hours darkness, from 18:00 to 6:00).
(§2) In the morning of day 7, 14, and 28, blood was taken from the retroorbital venous plexus from fasted anaesthetized animals. From each animal, 1 ml of blood was collected with EDTA as anticoagulant. The samples were be centrifuged for generation of plasma. All plasma samples were covered with a N2 atmosphere and then stored at −80° C. until analysis.
(§3) For mass spectrometry-based metabolite profiling analyses plasma samples were extracted and a polar and a non-polar fraction was obtained. For GC-MS analysis, the non-polar fraction was treated with methanol under acidic conditions to yield the fatty acid methyl esters. Both fractions were further derivatised with O-methyl-hydroxyamine hydrochloride and pyridine to convert Oxo-groups to O-methyloximes and subsequently with a silylating agent before analysis. In LC-MS analysis, both fractions were reconstituted in appropriate solvent mixtures. HPLC was performed by gradient elution on reversed phase separation columns. For mass spectrometric detection metanomics proprietary technology was applied which allows target and high sensitivity MRM (Multiple Reaction Monitoring) profiling in parallel to a full screen analysis.
(§4) Following comprehensive analytical validation steps, the data for each analyte were normalized against data from pool samples. These samples were run in parallel through the whole process to account for process variability. The significance of treatment group values specific for sex, dose group and metabolite was determined by comparing means of the treated groups to the means of the respective untreated control groups using WELCH-test. Normalized treatment group values and their significance were fed into a database for further statistics and data mining processes.
(§5) The changes of the group of plasma metabolites being indicative for liver toxicity after treatment of the rats are shown in the following tables: […]

male rats = assay: Plasma metabolite profiling (GC-MS/LC-MS) for liver toxicity markers, 28-day gavage study, male rats; type: in vivo, rat; conditions: male rats
Protocol: as §1, §2, §3, §4, §5

CN(C)C=O [Dimethylformamide]
1,2-Dioleoyl-sn-glycero-3-phosphatidyl-L-serine, change of plasma metabolite (female rats; fh7 (day 7)): 1.35 | 4-Hydroxysphinganine, change of plasma metabolite (female rats; fh7 (day 7)): 1.79 | Arachidonic acid (C20:cis-[5,8,11,14]4), change of plasma metabolite (female rats; fh7 (day 7)): 2.04 | Behenic acid (C22:0), change of plasma metabolite (female rats; fh7 (day 7)): 2.15 | Ceramide (d18:1, C24:0), change of plasma metabolite (female rats; fh7 (day 7)): 1.64 | Cholesterol, change of plasma metabolite (female rats; fh7 (day 7)): 2.41 | Docosahexaenoic acid (C22:cis[4,7,10,13,16,19]6), change of plasma metabolite (female rats; fh7 (day 7)): 2.02 | Glycerol, lipid fraction, change of plasma metabolite (female rats; fh7 (day 7)): 1.64 | Glycerolphosphate, lipid fraction, change of plasma metabolite (female rats; fh7 (day 7)): 2.37 | Heptadecanoic acid (C17:0), change of plasma metabolite (female rats; fh7 (day 7)): 1.43 | ID28x493, change of plasma metabolite (female rats; fh7 (day 7)): 2.27 | Lignoceric acid (C24:0), change of plasma metabolite (female rats; fh7 (day 7)): 2.01 | Linoleic acid (C18:cis[9,12]2), change of plasma metabolite (female rats; fh7 (day 7)): 1.90 | Nervonic acid (C24:1), change of plasma metabolite (female rats; fh7 (day 7)): 2.51 | Palmitic acid (C16:0), change of plasma metabolite (female rats; fh7 (day 7)): 1.93 | Phosphate, lipid (Phospholipids), change of plasma metabolite (female rats; fh7 (day 7)): 1.51 | Stearic acid (C18:0), change of plasma metabolite (female rats; fh7 (day 7)): 1.62 | TAG No 1, change of plasma metabolite (female rats; fh7 (day 7)): 2.26 | Threonic acid, change of plasma metabolite (female rats; fh7 (day 7)): 1.49 | Tricosanoic acid (C23:0), change of plasma metabolite (female rats; fh7 (day 7)): 1.65 | 1,2-Dioleoyl-sn-glycero-3-phosphatidyl-L-serine, change of plasma metabolite (female rats; fh14 (day 14)): 1.69 | 4-Hydroxysphinganine, change of plasma metabolite (female rats; fh14 (day 14)): 2.26 | Arachidonic acid (C20:cis-[5,8,11,14]4), change of plasma metabolite (female rats; fh14 (day 14)): 1.93 | Behenic acid (C22:0), change of plasma metabolite (female rats; fh14 (day 14)): 2.48 | Ceramide (d18:1, C24:0), change of plasma metabolite (female rats; fh14 (day 14)): 2.13 | Cholesterol, change of plasma metabolite (female rats; fh14 (day 14)): 2.23 | Docosahexaenoic acid (C22:cis[4,7,10,13,16,19]6), change of plasma metabolite (female rats; fh14 (day 14)): 2.21 | Glycerol, lipid fraction, change of plasma metabolite (female rats; fh14 (day 14)): 1.88 | Glycerolphosphate, lipid fraction, change of plasma metabolite (female rats; fh14 (day 14)): 1.97 | Heptadecanoic acid (C17:0), change of plasma metabolite (female rats; fh14 (day 14)): 1.64 | ID28x493, change of plasma metabolite (female rats; fh14 (day 14)): 3.14 | Lignoceric acid (C24:0), change of plasma metabolite (female rats; fh14 (day 14)): 2.29 | Linoleic acid (C18:cis[9,12]2), change of plasma metabolite (female rats; fh14 (day 14)): 2.33 | Nervonic acid (C24:1), change of plasma metabolite (female rats; fh14 (day 14)): 2.69 | Palmitic acid (C16:0), change of plasma metabolite (female rats; fh14 (day 14)): 2.08 | Phosphate, lipid (Phospholipids), change of plasma metabolite (female rats; fh14 (day 14)): 1.35 | Stearic acid (C18:0), change of plasma metabolite (female rats; fh14 (day 14)): 1.67 | TAG No 1, change of plasma metabolite (female rats; fh14 (day 14)): 2.87 | Threonic acid, change of plasma metabolite (female rats; fh14 (day 14)): 1.37 | 1,2-Dioleoyl-sn-glycero-3-phosphatidyl-L-serine, change of plasma metabolite (female rats; fh28 (day 28)): 1.47 | 4-Hydroxysphinganine, change of plasma metabolite (female rats; fh28 (day 28)): 2.22 | Arachidonic acid (C20:cis-[5,8,11,14]4), change of plasma metabolite (female rats; fh28 (day 28)): 1.80 | Behenic acid (C22:0), change of plasma metabolite (female rats; fh28 (day 28)): 2.18 | Ceramide (d18:1, C24:0), change of plasma metabolite (female rats; fh28 (day 28)): 1.82 | Cholesterol, change of plasma metabolite (female rats; fh28 (day 28)): 2.08 | Docosahexaenoic acid (C22:cis[4,7,10,13,16,19]6), change of plasma metabolite (female rats; fh28 (day 28)): 1.76 | Glycerol, lipid fraction, change of plasma metabolite (female rats; fh28 (day 28)): 1.89 | Glycerolphosphate, lipid fraction, change of plasma metabolite (female rats; fh28 (day 28)): 2.35 | Heptadecanoic acid (C17:0), change of plasma metabolite (female rats; fh28 (day 28)): 1.48 | ID28x493, change of plasma metabolite (female rats; fh28 (day 28)): 2.02 | Lignoceric acid (C24:0), change of plasma metabolite (female rats; fh28 (day 28)): 2.45 | Linoleic acid (C18:cis[9,12]2), change of plasma metabolite (female rats; fh28 (day 28)): 2.37 | Nervonic acid (C24:1), change of plasma metabolite (female rats; fh28 (day 28)): 2.91 | Palmitic acid (C16:0), change of plasma metabolite (female rats; fh28 (day 28)): 1.93 | Phosphate, lipid (Phospholipids), change of plasma metabolite (female rats; fh28 (day 28)): 1.59 | Stearic acid (C18:0), change of plasma metabolite (female rats; fh28 (day 28)): 1.61 | TAG No 1, change of plasma metabolite (female rats; fh28 (day 28)): 3.81 | Threonic acid, change of plasma metabolite (female rats; fh28 (day 28)): 1.19 | 1,2-Dioleoyl-sn-glycero-3-phosphatidyl-L-serine, change of plasma metabolite (male rats; mh7 (day 7)): 1.31 | 4-Hydroxysphingosine, change of plasma metabolite (male rats; mh7 (day 7)): 2.14 | Arachidonic acid (C20:cis-[5,8,11,14]4), change of plasma metabolite (male rats; mh7 (day 7)): 1.68 | Behenic acid (C22:0), change of plasma metabolite (male rats; mh7 (day 7)): 2.07 | Ceramide (d18:1, C24:0), change of plasma metabolite (male rats; mh7 (day 7)): 1.72 | Ceramide (d18:1, C24:1), change of plasma metabolite (male rats; mh7 (day 7)): 1.71 | Cholesterol, change of plasma metabolite (male rats; mh7 (day 7)): 2.01 | Docosahexaenoic acid (C22:cis[4,7,10,13,16,19]6), change of plasma metabolite (male rats; mh7 (day 7)): 1.96 | Eicosatrienoic acid, change of plasma metabolite (male rats; mh7 (day 7)): 2.55 | Glycerolphosphate, lipid fraction, change of plasma metabolite (male rats; mh7 (day 7)): 1.86 | Heptadecanoic acid (C17:0), change of plasma metabolite (male rats; mh7 (day 7)): 1.27 | Lignoceric acid (C24:0), change of plasma metabolite (male rats; mh7 (day 7)): 2.04 | Linoleic acid (C18:cis[9,12]2), change of plasma metabolite (male rats; mh7 (day 7)): 1.71 | Nervonic acid (C24:1), change of plasma metabolite (male rats; mh7 (day 7)): 2.53 | Palmitic acid (C16:0), change of plasma metabolite (male rats; mh7 (day 7)): 1.38 | Phosphatidylcholine (C18:2, C20:4), change of plasma metabolite (male rats; mh7 (day 7)): 1.18 | alpha-Tocopherol, change of plasma metabolite (male rats; mh7 (day 7)): 2.69 | myo-Inositol-2-monophosphate, lipid fraction, change of plasma metabolite (male rats; mh7 (day 7)): 1.92 | 1,2-Dioleoyl-sn-glycero-3-phosphatidyl-L-serine, change of plasma metabolite (male rats; mh14 (day 14)): 1.28 | 4-Hydroxysphingosine, change of plasma metabolite (male rats; mh14 (day 14)): 2.07 | Arachidonic acid (C20:cis-[5,8,11,14]4), change of plasma metabolite (male rats; mh14 (day 14)): 1.74 | Behenic acid (C22:0), change of plasma metabolite (male rats; mh14 (day 14)): 2.15 | Ceramide (d18:1, C24:0), change of plasma metabolite (male rats; mh14 (day 14)): 1.40 | Ceramide (d18:1, C24:1), change of plasma metabolite (male rats; mh14 (day 14)): 1.70 | Cholesterol, change of plasma metabolite (male rats; mh14 (day 14)): 2.15 | Docosahexaenoic acid (C22:cis[4,7,10,13,16,19]6), change of plasma metabolite (male rats; mh14 (day 14)): 1.99 | Eicosatrienoic acid, change of plasma metabolite (male rats; mh14 (day 14)): 2.02 | Glycerolphosphate, lipid fraction, change of plasma metabolite (male rats; mh14 (day 14)): 1.67 | Heptadecanoic acid (C17:0), change of plasma metabolite (male rats; mh14 (day 14)): 1.51 | Lignoceric acid (C24:0), change of plasma metabolite (male rats; mh14 (day 14)): 2.22 | Linoleic acid (C18:cis[9,12]2), change of plasma metabolite (male rats; mh14 (day 14)): 1.70 | Nervonic acid (C24:1), change of plasma metabolite (male rats; mh14 (day 14)): 3.57 | Palmitic acid (C16:0), change of plasma metabolite (male rats; mh14 (day 14)): 1.64 | Phosphatidylcholine (C18:2, C20:4), change of plasma metabolite (male rats; mh14 (day 14)): 1.17 | alpha-Tocopherol, change of plasma metabolite (male rats; mh14 (day 14)): 2.46 | myo-Inositol-2-monophosphate, lipid fraction, change of plasma metabolite (male rats; mh14 (day 14)): 2.48 | 1,2-Dioleoyl-sn-glycero-3-phosphatidyl-L-serine, change of plasma metabolite (male rats; mh28 (day 28)): 1.41 | 4-Hydroxysphingosine, change of plasma metabolite (male rats; mh28 (day 28)): 2.35 | Arachidonic acid (C20:cis-[5,8,11,14]4), change of plasma metabolite (male rats; mh28 (day 28)): 1.55 | Behenic acid (C22:0), change of plasma metabolite (male rats; mh28 (day 28)): 2.24 | Ceramide (d18:1, C24:0), change of plasma metabolite (male rats; mh28 (day 28)): 1.63 | Ceramide (d18:1, C24:1), change of plasma metabolite (male rats; mh28 (day 28)): 1.88 | Cholesterol, change of plasma metabolite (male rats; mh28 (day 28)): 1.81 | Docosahexaenoic acid (C22:cis[4,7,10,13,16,19]6), change of plasma metabolite (male rats; mh28 (day 28)): 2.06 | Eicosatrienoic acid, change of plasma metabolite (male rats; mh28 (day 28)): 1.60 | Glycerolphosphate, lipid fraction, change of plasma metabolite (male rats; mh28 (day 28)): 1.59 | Heptadecanoic acid (C17:0), change of plasma metabolite (male rats; mh28 (day 28)): 1.25 | Lignoceric acid (C24:0), change of plasma metabolite (male rats; mh28 (day 28)): 2.52 | Linoleic acid (C18:cis[9,12]2), change of plasma metabolite (male rats; mh28 (day 28)): 1.49 | Nervonic acid (C24:1), change of plasma metabolite (male rats; mh28 (day 28)): 3.39 | Palmitic acid (C16:0), change of plasma metabolite (male rats; mh28 (day 28)): 1.41 | Phosphatidylcholine (C18:2, C20:4), change of plasma metabolite (male rats; mh28 (day 28)): 1.26 | alpha-Tocopherol, change of plasma metabolite (male rats; mh28 (day 28)): 1.87 | myo-Inositol-2-monophosphate, lipid fraction, change of plasma metabolite (male rats; mh28 (day 28)): 2.31
